Molecular target: T1, glucocorticoid receptor (Homo sapiens, UniProt P04150)
T1 construct: host or cells: HepG2
T1 sequence (P04150 1-777): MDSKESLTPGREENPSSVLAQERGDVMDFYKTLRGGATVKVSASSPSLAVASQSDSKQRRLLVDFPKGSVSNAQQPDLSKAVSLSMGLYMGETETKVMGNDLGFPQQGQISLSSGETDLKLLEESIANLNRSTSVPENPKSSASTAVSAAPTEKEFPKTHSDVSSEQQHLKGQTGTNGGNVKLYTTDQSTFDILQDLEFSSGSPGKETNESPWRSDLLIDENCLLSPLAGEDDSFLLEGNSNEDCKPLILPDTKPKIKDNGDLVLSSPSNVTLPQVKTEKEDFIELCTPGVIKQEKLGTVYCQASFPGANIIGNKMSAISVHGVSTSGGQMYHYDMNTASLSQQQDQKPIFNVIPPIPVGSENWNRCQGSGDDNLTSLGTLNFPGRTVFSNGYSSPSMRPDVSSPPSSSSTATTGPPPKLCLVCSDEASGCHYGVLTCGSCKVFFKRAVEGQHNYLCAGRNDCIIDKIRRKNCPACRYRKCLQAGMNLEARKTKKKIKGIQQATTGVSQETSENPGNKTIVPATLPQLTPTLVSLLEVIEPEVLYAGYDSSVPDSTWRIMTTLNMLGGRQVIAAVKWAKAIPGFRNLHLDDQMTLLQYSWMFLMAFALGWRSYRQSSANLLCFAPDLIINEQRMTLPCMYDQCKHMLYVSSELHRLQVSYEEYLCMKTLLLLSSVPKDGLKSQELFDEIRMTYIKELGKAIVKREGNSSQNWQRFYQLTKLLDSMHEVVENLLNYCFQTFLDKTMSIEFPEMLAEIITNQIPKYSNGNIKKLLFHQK
Assay: Hep G2 TAT assay: induction of TAT by dexamethasone in HepG2 cells
Format: cell-based
Protocol: Glucocorticoid mediated activation of TAT occurs by transactivation of glucocorticoid response elements in the TAT promoter by glucocorticoid receptor-agonist complex.
TAT activity was measured as outlined in the literature by A. Ali et al., J. Med. Chem., 2004, 47, 2441-2452.
HepG2 cells were cultured using MEME media supplemented with 10% (v/v) foetal bovine serum; 2 mM L-glutamine and 1% (v/v) NEAA at 37° C., 5%/95% (v/v) CO2/air. The HepG2 cells were counted and adjusted to yield a density of 0.125×10^6 cells/ml in RPMI 1640 without phenol red, 10% (v/v) charcoal stripped FBS, 2 mM L-glutamine and seeded at 25,000 cells/well in 200 μl into 96 well, sterile, tissue culture micro titre plates, and incubated at 37° C., 5% CO2 for 24 hours
Growth media was removed and replaced with assay media {RPMI 1640 without phenol red, 2 mM L-glutamine+10 μM forskolin}. […] Compounds were serially half log diluted in 100% (v/v) dimethylsulphoxide from a 10 mM stock.
HepG2 cells were then lysed with 30 μl of cell lysis buffer containing a protease inhibitor cocktail for 15 minutes at 4° C. 155 μl of substrate mixture was then added containing 5.4 mM Tyrosine sodium salt, 10.8 mM alpha ketoglutarate and 0.06 mM pyridoxal 5′ phosphate in 0.1 M potassium phosphate buffer (pH 7.4). After 2 hours incubation at 37° C. the reaction was terminated by the addition of 15 μl of 10 M aqueous potassium hydroxide solution, and the plates incubated for a further 30 minutes at 37° C. The TAT activity product was measured by absorbance at λ 340 nm.
[compound] and fitting the data to a 4 parameter logistic equation.

Structure (SMILES)	Ki [nM]
Cc1ccc(CO)cc1C1=CCC(c2[nH]c(=O)[nH]c(=O)c2Cc2ccccc2)CC1 (stereo not shown) [Example 22]	330
O=c1[nH]c(C2CC=C(c3ccccc3C(F)(F)F)CC2)c(Cc2ccccc2)c(=O)[nH]1 (stereo not shown) [Example 11]	14
O=c1[nH]c(C2CC=C(c3c(Cl)cccc3Cl)CC2)c(Cc2ccccc2)c(=O)[nH]1 (stereo not shown) [Example 19]	32
O=c1[nH]c(C2CC=C(c3ccc(OC(F)(F)F)cc3F)CC2)c(Cc2ccccc2)c(=O)[nH]1 (stereo not shown) [Example 67]	120
CCOc1ccc(C2=CCC(c3[nH]c(=O)[nH]c(=O)c3Cc3ccccc3)CC2)c(F)c1 (stereo not shown) [Example 78]	175
CS(=O)(=O)c1ccc(C2=CCC(c3[nH]c(=O)[nH]c(=O)c3Cc3cccc(C(F)(F)F)c3)CC2)c(F)c1 (stereo not shown) [Example 116]	170
CCS(=O)(=O)c1ccc(C2=CCC(c3[nH]c(=O)[nH]c(=O)c3Cc3ccccc3)CC2)c(F)c1 (stereo not shown) [Example 101]	65
CC1(C)CCCN(c2ncccc2C2=CCC(c3[nH]c(=O)[nH]c(=O)c3Cc3ccccc3)CC2)C1 (stereo not shown) [Example 46]	300
O=c1[nH]c(C2CC=C(c3ccc(C(F)(F)F)cc3F)CC2)c(Cc2ccccc2)c(=O)[nH]1 (stereo not shown) [Example 37]	140
O=c1[nH]c(C2CC=C(c3ccc(Cl)cc3Cl)CC2)c(Cc2ccccc2)c(=O)[nH]1 (stereo not shown) [Example 6]	65
O=c1[nH]c(C2CC=C(c3cccnc3C(F)(F)F)CC2)c(Cc2cccc(N3CCCC3)n2)c(=O)[nH]1 (stereo not shown) [Example 51, 5-((6-(Pyrrolidin-1-yl)pyridin-2-yl)methyl)-6-(4-(2-(trifluoromethyl)pyridin-3-yl)cyclohex-3-en-1-yl)pyrimidine-2,4(1H,3H)-dione, formic acid]	400
O=C(c1ccc(C2=CCC(c3[nH]c(=O)[nH]c(=O)c3Cc3ccccc3)CC2)c(Cl)c1)N1CCCC1 (stereo not shown) [Example 42, 5-Benzyl-6-(2′-chloro-4′-(pyrrolidine-1-carbonyl)-2,3,4,5-tetrahydro-[1,1′-biphenyl]-4-yl)pyrimidine-2,4(1H,3H)-dione]	33
CC(C)S(=O)(=O)c1ccc(C2=CCC(c3[nH]c(=O)[nH]c(=O)c3Cc3ccccc3)CC2)c(F)c1 (stereo not shown) [Example 102]	270
N#Cc1ccc(Cl)c(C2=CCC(c3[nH]c(=O)[nH]c(=O)c3Cc3ccccc3)CC2)c1 (stereo not shown) [Example 27]	210
O=c1[nH]c(C2CC=C(c3cccc(Cl)c3)CC2)c(Cc2ccccc2)c(=O)[nH]1 (stereo not shown) [Example 16]	640
CS(=O)(=O)c1ccc(C2=CCC(c3[nH]c(=O)[nH]c(=O)c3Cc3ccccc3)CC2)c(C(F)(F)F)c1 (stereo not shown) [Example 74]	264
CS(=O)(=O)c1ccccc1C1=CCC(c2[nH]c(=O)[nH]c(=O)c2Cc2ccccc2)CC1 (stereo not shown) [Example 15]	520
O=c1[nH]c(C2CC=C(c3ccc(OCC(F)(F)F)cc3Cl)CC2)c(Cc2ccccc2)c(=O)[nH]1 (stereo not shown) [Example 87]	453
CC(C)Oc1ccc(C2=CCC(c3[nH]c(=O)[nH]c(=O)c3Cc3ccccc3)CC2)c(Cl)c1 (stereo not shown) [Example 52]	568
COc1ccc(F)cc1C1=CCC(c2[nH]c(=O)[nH]c(=O)c2Cc2ccccc2)CC1 (stereo not shown) [Example 12]	350
CNS(=O)(=O)c1ccc(C2=CCC(c3[nH]c(=O)[nH]c(=O)c3Cc3ccccc3)CC2)c(C(F)(F)F)c1 (stereo not shown) [Example 84]	259
CC(C)Oc1ccc(C2=CCC(c3[nH]c(=O)[nH]c(=O)c3Cc3ccccc3)CC2)c(F)c1 (stereo not shown) [Example 68]	497
O=c1[nH]c(C2CC=C(c3cccnc3N3CCCC3)CC2)c(Cc2ccccc2)c(=O)[nH]1 (stereo not shown) [Example 44]	45
O=c1[nH]c(C2CC=C(c3ccc(F)cc3Cl)CC2)c(Cc2ccccc2)c(=O)[nH]1 (stereo not shown) [Example 9]	26
O=c1[nH]c(C2CC=C(c3ccc(F)cc3C(F)(F)F)CC2)c(Cc2ccccc2)c(=O)[nH]1 (stereo not shown) [Example 34]	23

Structure (SMILES)	Ki [nM]
N#Cc1ccc(C2=CC[C@@H](c3[nH]c(=O)[nH]c(=O)c3Cc3ccccc3)CC2)c(Cl)c1 (single isomer, unassigned) [Example 40]	42
CCOc1ccc(C2=CCC(c3[nH]c(=O)[nH]c(=O)c3Cc3ccccc3)CC2)c(F)c1Cl (stereo not shown) [Example 79]	530
CN(C)S(=O)(=O)c1ccc(C2=CCC(c3[nH]c(=O)[nH]c(=O)c3Cc3ccccc3)CC2)c(F)c1 (stereo not shown) [Example 99]	730
CCOc1ccc(C2=CCC(c3[nH]c(=O)[nH]c(=O)c3Cc3ccccc3)CC2)c(Cl)c1F (stereo not shown) [Example 90]	746
O=c1[nH]c(C2CC=C(c3cccnc3N3CCC(F)(F)CC3)CC2)c(Cc2ccccc2)c(=O)[nH]1 (stereo not shown) [Example 45]	970
Cc1ccc(F)cc1C1=CCC(c2[nH]c(=O)[nH]c(=O)c2Cc2ccccc2)CC1 (stereo not shown) [Example 21]	270
O=c1[nH]c(C2CC=C(c3ccc(C4CC4)cc3F)CC2)c(Cc2ccccc2)c(=O)[nH]1 (stereo not shown) [Example 111, 5-benzyl-6-(4′-cyclopropyl-2′-fluoro-2,3,4,5-tetrahydro-[1,1′-biphenyl]-4-yl)pyrimidine-2,4(1H,3H)-dione]	113
CCn1nccc1C1=CCC(c2[nH]c(=O)[nH]c(=O)c2Cc2ccccc2)CC1 (stereo not shown) [Example 54]	1360
CO[C@H]1CCCN(c2ncccc2C2=CCC(c3[nH]c(=O)[nH]c(=O)c3Cc3ccccc3)CC2)C1 (stereo partly shown) [Example 49]	280
O=c1[nH]c(C2CC=C(c3cccc(C(F)(F)F)c3Cl)CC2)c(Cc2ccccc2)c(=O)[nH]1 (stereo not shown) [Example 36]	110
CS(=O)(=O)c1ccc(C2=CCC(c3[nH]c(=O)[nH]c(=O)c3Cc3cccc(F)c3F)CC2)c(F)c1 (stereo not shown) [Example 115, 5-(2,3-difluorobenzyl)-6-(2′-fluoro-4′-(methylsulfonyl)-2,3,4,5-tetrahydro-[1,1′-biphenyl]-4-yl)pyrimidine-2,4(1H,3H)-dione]	85
CN(C)c1ncc(C2=CCC(c3[nH]c(=O)[nH]c(=O)c3Cc3ccccc3)CC2)cn1 (stereo not shown) [Example 55]	1480
COc1ccc(C#N)cc1C1=CCC(c2[nH]c(=O)[nH]c(=O)c2Cc2ccccc2)CC1 (stereo not shown) [Example 23]	330
N#Cc1cccc(C2=CCC(c3[nH]c(=O)[nH]c(=O)c3Cc3ccccc3)CC2)c1 (stereo not shown) [Example 33]	740
CCn1nc(C(F)(F)F)cc1C1=CCC(c2[nH]c(=O)[nH]c(=O)c2Cc2ccccc2)CC1 (stereo not shown) [Example 71]	148
CCOc1ccc(C2=CCC(c3[nH]c(=O)[nH]c(=O)c3Cc3ccccc3)CC2)c(F)c1F (stereo not shown) [Example 91]	247
CN(C)S(=O)(=O)c1ccc(C2=CCC(c3[nH]c(=O)[nH]c(=O)c3Cc3ccccc3)CC2)c(Cl)c1 (stereo not shown) [Example 103]	258
Cc1ncccc1C1=CCC(c2[nH]c(=O)[nH]c(=O)c2Cc2ccccc2)CC1 (stereo not shown) [Example 25]	100
N#Cc1cc(C(F)(F)F)ccc1C1=CCC(c2[nH]c(=O)[nH]c(=O)c2Cc2ccccc2)CC1 (stereo not shown) [Example 38]	75
N#Cc1ccccc1C1=CCC(c2[nH]c(=O)[nH]c(=O)c2Cc2ccccc2)CC1 (stereo not shown) [Example 5]	120
O=c1[nH]c(C2CC=C(c3ccc(C(F)(F)F)nc3N3CCCC3)CC2)c(Cc2ccccc2)c(=O)[nH]1 (stereo not shown) [Example 113]	75
O=c1[nH]c(C2CC=C(c3cccc(Cl)c3C(F)(F)F)CC2)c(Cc2ccccc2)c(=O)[nH]1 (stereo not shown) [Example 35]	59
O=c1[nH]c(C2CC=C(c3ccc(C4CC4)cc3C(F)(F)F)CC2)c(Cc2ccccc2)c(=O)[nH]1 (stereo not shown) [Example 112, 5-benzyl-6-(4′-cyclopropyl-2′-(trifluoromethyl)-2,3,4,5-tetrahydro-[1,1′-biphenyl]-4-yl)pyrimidine-2,4(1H,3H)-dione]	333
CN1CCN(C(=O)c2ccc(C3=CCC(c4[nH]c(=O)[nH]c(=O)c4Cc4ccccc4)CC3)c(Cl)c2)CC1 (stereo not shown) [Example 41, 5-Benzyl-6-(2′-chloro-4′-(4-methylpiperazine-1-carbonyl)-2,3,4,5-tetrahydro-[1,1′-biphenyl]-4-yl)pyrimidine-2,4(1H,3H)-dione]	480

— US12018001B2, “Pyrimidine cyclohexenyl glucocorticoid receptor modulators” (priority 2018, dated 2024)
